Measured values reported in PubChem BioAssay AID1259407 (Chemical Carcinogenesis Research Information System (CCRIS), 2018).
The source made the active and inactive calls. How the calls were made is not given here.

Test system: CCRIS mutagenicity, Ames/micronucleus/aberration tests
Test: CCRIS mutagenicity studies

Cc1ccc(N)cc1N
mutagenic call (End Point: IN VITRO CHROMOSOMAL ABERRATIONS, Test System: CHL CELLS, Metabolic Activation: NONE): active; positive (structural changes) | mutagenic call (End Point: IN VITRO CHROMOSOMAL ABERRATIONS, Test System: CHL CELLS, Metabolic Activation: RAT, LIVER, S-9, SODIUM PHENOBARBITAL AND 5,6-BENZOFLAVONE): active; positive (structural changes) | mutagenic call (End Point: IN VITRO CHROMOSOMAL ABERRATIONS, Test System: CHO-LB CELLS, Metabolic Activation: NONE): active; positive | mutagenic call (End Point: IN VITRO CHROMOSOMAL ABERRATIONS, Test System: CHO-LB CELLS, Metabolic Activation: RAT, LIVER, S-9, AROCLOR 1254): active; positive | mutagenic call (End Point: IN VITRO CHROMOSOMAL ABERRATIONS, Test System: CHO-WBL CELLS, Metabolic Activation: NONE): active; positive | mutagenic call (End Point: IN VITRO MICRONUCLEUS, Test System: HUMAN HEPATOMA HEP G2 CELLS, Metabolic Activation: NONE): active; positive | mutagenic call (Test System: AMES SALMONELLA TYPHIMURIUM, Strain/Indicator: TA97, Metabolic Activation: RAT, LIVER, S-9, AROCLOR 1254 (4 OR 10%), Method: STANDARD PLATE): inactive; negative | mutagenic call (Test System: AMES SALMONELLA TYPHIMURIUM, Strain/Indicator: TA98(1,8-DNP6), Metabolic Activation: PLANT CELLS, Method: PREINCUBATION): inactive; negative | mutagenic call (Test System: AMES SALMONELLA TYPHIMURIUM, Strain/Indicator: TA98(1,8-DNP6), Metabolic Activation: RAT, LIVER, S-9, AROCLOR 1254, Method: STANDARD PLATE): inactive; negative | mutagenic call (Test System: AMES SALMONELLA TYPHIMURIUM, Strain/Indicator: TA98(PYG219), Metabolic Activation: RAT, LIVER, S-9, AROCLOR 1254, Method: STANDARD PLATE): active; positive | mutagenic call (Test System: AMES SALMONELLA TYPHIMURIUM, Strain/Indicator: TA98, Metabolic Activation: MOUSE, LIVER, S-9, PHENOBARBITONE AND BETA-NAPHTHOFLAVONE, Method: STANDARD PLATE): active; positive | mutagenic call (Test System: AMES SALMONELLA TYPHIMURIUM, Strain/Indicator: TA98, Metabolic Activation: NONE, Method: MICROSUSPENSION): inactive; negative | mutagenic call (Test System: AMES SALMONELLA TYPHIMURIUM, Strain/Indicator: TA98, Metabolic Activation: NONE, Method: SUSPENSION/PLATE): inactive; negative | mutagenic call (Test System: AMES SALMONELLA TYPHIMURIUM, Strain/Indicator: TA98, Metabolic Activation: PLANT CELLS, Method: PREINCUBATION): inactive; negative | mutagenic call (Test System: AMES SALMONELLA TYPHIMURIUM, Strain/Indicator: TA98, Metabolic Activation: RAT LIVER CYTOSOL, AROCLOR 1254, Method: PREINCUBATION): inactive; negative | mutagenic call (Test System: AMES SALMONELLA TYPHIMURIUM, Strain/Indicator: TA98, Metabolic Activation: RAT LIVER MICROSOMES, AROCLOR 1254, Method: PREINCUBATION): active; positive | mutagenic call (Test System: AMES SALMONELLA TYPHIMURIUM, Strain/Indicator: TA98, Metabolic Activation: RAT LIVER S-9, AROCLOR 1254, Method: MICROSUSPENSION): active; positive | mutagenic call (Test System: AMES SALMONELLA TYPHIMURIUM, Strain/Indicator: TA98, Metabolic Activation: RAT LIVER S-9, PHENOBARBITAL AND BETA-NAPHTHOFLAVONE, Method: PREINCUBATION): active; positive | mutagenic call (Test System: AMES SALMONELLA TYPHIMURIUM, Strain/Indicator: TA98, Metabolic Activation: RAT, LIVER, HEPATOCYTES, AROCLOR 1254, Method: STANDARD PLATE): active; positive | mutagenic call (Test System: AMES SALMONELLA TYPHIMURIUM, Strain/Indicator: TA98, Metabolic Activation: RAT, LIVER, MICROSOMES, AROCLOR 1254, Method: PREINCUBATION): active; positive | mutagenic call (Test System: AMES SALMONELLA TYPHIMURIUM, Strain/Indicator: TA98, Metabolic Activation: RAT, LIVER, MICROSOMES, BENZO[A]PYRENE, Method: PREINCUBATION): active; positive | mutagenic call (Test System: AMES SALMONELLA TYPHIMURIUM, Strain/Indicator: TA98, Metabolic Activation: RAT, LIVER, MICROSOMES, CLOFIBRATE, Method: PREINCUBATION): inactive; negative | mutagenic call (Test System: AMES SALMONELLA TYPHIMURIUM, Strain/Indicator: TA98, Metabolic Activation: RAT, LIVER, MICROSOMES, DEXAMETHASONE, Method: PREINCUBATION): inactive; negative | mutagenic call (Test System: AMES SALMONELLA TYPHIMURIUM, Strain/Indicator: TA98, Metabolic Activation: RAT, LIVER, MICROSOMES, DIAMINOTOLUENE, Method: PREINCUBATION): active; positive | mutagenic call (Test System: AMES SALMONELLA TYPHIMURIUM, Strain/Indicator: TA98, Metabolic Activation: RAT, LIVER, MICROSOMES, ISONIAZID, Method: PREINCUBATION): inactive; negative | mutagenic call (Test System: AMES SALMONELLA TYPHIMURIUM, Strain/Indicator: TA98, Metabolic Activation: RAT, LIVER, MICROSOMES, PHENOBARBITAL, Method: PREINCUBATION): inactive; negative | mutagenic call (Test System: AMES SALMONELLA TYPHIMURIUM, Strain/Indicator: TA98, Metabolic Activation: RAT, LIVER, MICROSOMES, Method: PREINCUBATION): inactive; negative | mutagenic call (Test System: AMES SALMONELLA TYPHIMURIUM, Strain/Indicator: TA98, Metabolic Activation: RAT, LIVER, S-9, AROCLOR 1254, Method: STANDARD PLATE): active; positive | mutagenic call (Test System: AMES SALMONELLA TYPHIMURIUM, Strain/Indicator: TA98, Metabolic Activation: RAT, LIVER, S-9, AROCLOR, Method: PREINCUBATION): active; positive | mutagenic call (Test System: AMES SALMONELLA TYPHIMURIUM, Strain/Indicator: TA98, Metabolic Activation: RAT, LIVER, S-9, PCB, Method: PREINCUBATION): active; positive | mutagenic call (Test System: AMES SALMONELLA TYPHIMURIUM, Strain/Indicator: TA98, Metabolic Activation: RAT, LIVER, S-9, PHENOBARBITAL AND 5,6-BENZOFLAVONE, Method: PREINCUBATION): active; positive | mutagenic call (Test System: AMES SALMONELLA TYPHIMURIUM, Strain/Indicator: TA98, Metabolic Activation: RAT, LIVER, S-9, PHENOBARBITAL AND 5,6-BENZOFLAVONE, Method: SUSPENSION/PLATE): active; positive | mutagenic call (Test System: AMES SALMONELLA TYPHIMURIUM, Strain/Indicator: TA100, Metabolic Activation: NONE, Method: MICROSUSPENSION): inactive; negative | mutagenic call (Test System: AMES SALMONELLA TYPHIMURIUM, Strain/Indicator: TA100, Metabolic Activation: NONE, Method: PREINCUBATION): inactive; negative | mutagenic call (Test System: AMES SALMONELLA TYPHIMURIUM, Strain/Indicator: TA100, Metabolic Activation: NONE, Method: SUSPENSION/PLATE): inactive; negative | mutagenic call (Test System: AMES SALMONELLA TYPHIMURIUM, Strain/Indicator: TA100, Metabolic Activation: RAT LIVER S-9, AROCLOR 1254, Method: MICROSUSPENSION): inactive; negative | mutagenic call (Test System: AMES SALMONELLA TYPHIMURIUM, Strain/Indicator: TA100, Metabolic Activation: RAT LIVER S-9, PHENOBARBITAL AND BETA-NAPHTHOFLAVONE, Method: PREINCUBATION): active; positive | mutagenic call (Test System: AMES SALMONELLA TYPHIMURIUM, Strain/Indicator: TA100, Metabolic Activation: RAT, LIVER, S-9, AROCLOR 1254, Method: STANDARD PLATE): active; positive | mutagenic call (Test System: AMES SALMONELLA TYPHIMURIUM, Strain/Indicator: TA100, Metabolic Activation: RAT, LIVER, S-9, PCB, Method: PREINCUBATION): active; positive | mutagenic call (Test System: AMES SALMONELLA TYPHIMURIUM, Strain/Indicator: TA100, Metabolic Activation: RAT, LIVER, S-9, PHENOBARBITAL AND 5,6-BENZOFLAVONE, Method: PREINCUBATION): active; positive | mutagenic call (Test System: AMES SALMONELLA TYPHIMURIUM, Strain/Indicator: TA100, Metabolic Activation: RAT, LIVER, S-9, PHENOBARBITAL AND 5,6-BENZOFLAVONE, Method: SUSPENSION/PLATE): active; positive | mutagenic call (Test System: AMES SALMONELLA TYPHIMURIUM, Strain/Indicator: TA1535, Metabolic Activation: NONE, Method: PREINCUBATION): inactive; negative | mutagenic call (Test System: AMES SALMONELLA TYPHIMURIUM, Strain/Indicator: TA1535, Metabolic Activation: RAT LIVER S-9, PHENOBARBITAL AND BETA-NAPHTHOFLAVONE, Method: PREINCUBATION): inactive; negative | mutagenic call (Test System: AMES SALMONELLA TYPHIMURIUM, Strain/Indicator: TA1537, Metabolic Activation: NONE, Method: PREINCUBATION): inactive; negative | mutagenic call (Test System: AMES SALMONELLA TYPHIMURIUM, Strain/Indicator: TA1537, Metabolic Activation: RAT LIVER S-9, PHENOBARBITAL AND BETA-NAPHTHOFLAVONE, Method: PREINCUBATION): active; positive | mutagenic call (Test System: AMES SALMONELLA TYPHIMURIUM, Strain/Indicator: TA1537, Metabolic Activation: RAT, LIVER, S-9, AROCLOR 1254 (4 OR 10%), Method: STANDARD PLATE): inactive; negative | mutagenic call (Test System: AMES SALMONELLA TYPHIMURIUM, Strain/Indicator: TA1538, Metabolic Activation: RAT, LIVER, S-9, AROCLOR 1254 (4 OR 10%), Method: STANDARD PLATE): active; positive | mutagenic call (Test System: AMES SALMONELLA TYPHIMURIUM, Strain/Indicator: TA1538, Metabolic Activation: RAT, LIVER, S-9, AROCLOR 1254, Method: STANDARD PLATE): active; positive | mutagenic call (Test System: AMES SALMONELLA TYPHIMURIUM, Strain/Indicator: YG1024, Metabolic Activation: PLANT CELLS, Method: PREINCUBATION): active; positive | mutagenic call (Test System: CHINESE HAMSTER V-79, Strain/Indicator: V-79/6-THIOGUANINE, Metabolic Activation: NONE, Method: SUSPENSION/PLATE): inactive; negative | mutagenic call (Test System: CHINESE HAMSTER V-79, Strain/Indicator: V-79/6-THIOGUANINE, Metabolic Activation: RAT, LIVER, S-9, PHENOBARBITAL AND BETA-NAPHTHOFLAVONE, Method: SUSPENSION/PLATE): inactive; negative | mutagenic call (Test System: E.COLI, Strain/Indicator: WP2UVRA, Metabolic Activation: NONE, Method: PREINCUBATION): inactive; negative | mutagenic call (Test System: E.COLI, Strain/Indicator: WP2UVRA, Metabolic Activation: RAT LIVER S-9, PHENOBARBITAL AND BETA-NAPHTHOFLAVONE, Method: PREINCUBATION): inactive; negative | mutagenic call (Test System: UDS HUMAN HEPATOMA HEPG2 CELLS, Strain/Indicator: THY INCORP, Metabolic Activation: NONE, Method: AUTORADIOGRAPHY): active; positive | mutagenic call (Test System: UDS RAT HEPATOCYTES, Strain/Indicator: BROMODEOXYURIDINE INCORP, Metabolic Activation: NONE, Method: FLOW CYTOMETRIC ANALYSIS): active; positive | mutagenic call (Test System: UDS RAT HEPATOCYTES, Strain/Indicator: THY INCORP, Metabolic Activation: NONE, Method: AUTORADIOGRAPHY): active; positive
